According to patent publication US11285132B2, “Uses of indolinone compounds” (Oncternal Therapeutics, Inc., priority 2016, dated 2022):

Key:
Format in all cases: cell-based
DLBCL cell lines [1] = assay: Combination with other targeted agents, summary over DLBCL cell lines
Method: The latter synergism could be linked to the previously mentioned negative trend between TK-216 IC50 values and the presence of BCL2 translocation.
Cell lines were exposed to YK-4-279 or TK-216, alone or in combination with other compounds, for 72 h using a Tecan D300e Digital Dispenser and 96 well plates. Cell proliferation was measured with MTT. Synergy was determined with the Chou-Talalay combination index. Gene expression profiling (GEP) was performed with the Illumina HumanHT 12 Expression BeadChips. In vivo studies were done in NOD-SCID mice and treatments started with 60 mm3 tumor volumes sc.
Since lenalidomide is active in mantle cell lymphoma (MCL), the synergism of the combination of TK-216 and lenalidomide was confirmed also in two MCL cell lines.

DLBCL cell lines [2] = assay: Median-effect combination analysis (CalcuSyn, Chou/Talalay CI)
From the text: The median-effect analysis was used to determine synergism, antagonism, or additivity of TK216 when combined with ABT199 (BCL-2i) and ACP196 (BTKi).
The inhibition of the EWS-FLI1 oncogene offers a promising approach for the treatment of Ewing Sarcoma, e.g., relapsed/refractory Ewing Sarcoma.

TMD-8 = assay: 72 hr CellTiter-Glo, DLBCL cell line; details: Homo sapiens, TMD8

O=C(CC1(O)C(=O)Nc2c(Cl)ccc(Cl)c21)c1ccc(C2CC2)cc1 (stereo not shown) [TK216, 4,7-Dichloro-3-(2-(4-cyclopropylphenyl)-2-oxoethyl)-3-hydroxyindolin-2-one]
combination of TK-216 with the BET inhibitor OTX015 (MK-8628) (DLBCL cell lines [1]; with OTX015, DLBCL cell lines): synergism in 2/4 cells and additive effect in 1/4 cells
combination of TK-216 with the immunomodulator lenalidomide (DLBCL cell lines [1]; with lenalidomide, activated B cell type DLBCL): synergism in 2/2 activated B cell type DLBCL
combination of TK-216 with the anti-CD20 monoclonal antibody rituximab (DLBCL cell lines [1]; with rituximab, DLBCL cell lines): synergism in 2/3 cells
combination of TK-216 with the BCL2 inhibitor venetoclax (DLBCL cell lines [1]; with venetoclax, DLBCL cell lines): synergism in 3/4 cells
combination effect with ABT199 (BCL-2i), Combination Index (DLBCL cell lines [2]; combined with ABT199): synergy
combination effect with ACP196 (BTKi), Combination Index (DLBCL cell lines [2]; combined with ACP196): synergy
IC50 (TMD-8): 152 nM
